Assay results published in patent publication US20060106028A1, “Polycyclic aromatics and derivatives thereof and processes for their preparation” (priority 2004, published 2006).
Converted amounts (≈) assume the structure as drawn.

Experiments:
Type in all cases: cell-based
[1] = tested on: Streptococcus pneumoniae (LSPQ 3412); assay: Antibacterial activity, MIC (NCCLS M7-A5); conditions: MH medium +2% lysed horse blood
520L (Melanoma) = assay: In vitro cytotoxic activity, 36 tumor cell lines panel; conditions: 96 hours
Description: (§1) Culture conditions and activity evaluations of Compound 1 against 36 cancer cell lines were done as described below. Results were expressed as the concentration of drug which inhibits 50% of the cell growth (IC50, calculated using the formula: [Ti/C]×100=−50).
(§2) The compound was dissolved at 10 mM in DMSO. Dilution in vehicle to concentrations of 30, 10, 3, 1 and 0.3 μM were prepared immediately before assays. Depending on the cell line's growth characteristics, 4000-10000 cells were plated in two 96-wells pates (day 0) and incubated for 16 hours. The following day, propidium iodide was added to one of the two plates. Test compound was added to the second plate, as well as vehicle control, and cells further incubated for 96 hours. The compound was tested at each concentration and in triplicates. The equivalent cell number was determined after adding propidium iodide by measuring the signal by fluorescence (Ti for test article, C for control).

629L (Lung) = assay: as above; conditions: 96 hours
Description: as §1, §2

1752L (Pleuramesot.) = assay: as above; conditions: 96 hours
Description: as §1, §2

HCT116 (Colon) = assay: as above; conditions: Homo sapiens, HCT-116, 96 hours
Description: as §1, §2

944L (Renal) = assay: as above; conditions: 96 hours
Description: as §1, §2

DU145 (Prostate) = assay: as above; conditions: Homo sapiens, DU-145, 96 hours
Description: as §1, §2

899L (Ovarian) = assay: as above; conditions: 96 hours
Description: as §1, §2

1619L (Ovarian) = assay: as above; conditions: 96 hours
Description: as §1, §2

251L (Gastric) = assay: as above; conditions: 96 hours
Description: as §1, §2

276L (Melanoma) = assay: as above; conditions: 96 hours
Description: as §1, §2

1781L (Renal) = assay: as above; conditions: 96 hours
Description: as §1, §2

1138L (Uterus) = assay: as above; conditions: 96 hours
Description: as §1, §2

393NL (Renal) = assay: as above; conditions: 96 hours
Description: as §1, §2

536L (Head & Neck) = assay: as above; conditions: 96 hours
Description: as §1, §2

498NL (CNS) = assay: as above; conditions: 96 hours
Description: as §1, §2

401NL (Mammary) = assay: as above; conditions: 96 hours
Description: as §1, §2

1657L (Pancreas) = assay: as above; conditions: 96 hours
Description: as §1, §2

H460 (Lung) = assay: as above; conditions: Homo sapiens, NCI-H460, 96 hours
Description: as §1, §2

514L (Melanoma) = assay: as above; conditions: 96 hours
Description: as §1, §2

PANC1 (Pancreas) = assay: as above; conditions: Homo sapiens, PANC-1, 96 hours
Description: as §1, §2

526L (Lung) = assay: as above; conditions: 96 hours
Description: as §1, §2

22RV1 (Prostate) = assay: as above; conditions: Homo sapiens, 96 hours
Description: as §1, §2

T24 (Bladder) = assay: as above; conditions: 96 hours
Description: as §1, §2

1218L (Bladder) = assay: as above; conditions: 96 hours
Description: as §1, §2

HT29 (Colon) = assay: as above; conditions: Homo sapiens, HT-29, 96 hours
Description: as §1, §2

OVCAR3 (Ovarian) = assay: as above; conditions: Homo sapiens, OVCAR-3, 96 hours
Description: as §1, §2

289L (Lung) = assay: as above; conditions: 96 hours
Description: as §1, §2

SF268 (CNS) = assay: as above; conditions: Homo sapiens, SF-268, 96 hours
Description: as §1, §2

486L (Renal) = assay: as above; conditions: 96 hours
Description: as §1, §2

MCF7 (Mammary) = assay: as above; conditions: Homo sapiens, 96 hours
Description: as §1, §2

529L (Lung) = assay: as above; conditions: 96 hours
Description: as §1, §2

462NL (Melanoma) = assay: as above; conditions: 96 hours
Description: as §1, §2

1121L (Lung) = assay: as above; conditions: 96 hours
Description: as §1, §2

PC3M (Prostate) = assay: as above; conditions: Homo sapiens, PC-3M, 96 hours
Description: as §1, §2

394NL (Melanoma) = assay: as above; conditions: 96 hours
Description: as §1, §2

LNCAP (Prostate) = assay: as above; conditions: Homo sapiens, 96 hours
Description: as §1, §2

Structure (SMILES): CCC(C)c1cc2c(=O)c3ccc4c(OC)c5c(=O)c6c(O)ccc(O)c6c(=O)c5c(O)c4c3c(=O)c2c(=O)n1CC(=O)N1CC(C(=O)O)NC(=O)C1C (stereo not shown) [Compound 1]
- MIC [1]: 0.5 to 1 µg/mL (≈ 0.678 to 1.36 µM)
- IC50 (520L (Melanoma)): 7.25 µM
- IC50 (629L (Lung)): 11.9 µM
- IC50 (1752L (Pleuramesot.)): 4.23 µM
- IC50 (HCT116 (Colon)): 8.24 µM
- IC50 (944L (Renal)): 14.9 µM
- IC50 (DU145 (Prostate)): < 0.41 µM
- IC50 (899L (Ovarian)): 34.9 µM
- IC50 (1619L (Ovarian)): 19.6 µM
- IC50 (251L (Gastric)): 0.72 µM
- IC50 (276L (Melanoma)): 8.26 µM
- IC50 (1781L (Renal)): 7.54 µM
- IC50 (1138L (Uterus)): < 0.41 µM
- IC50 (393NL (Renal)): 9.08 µM
- IC50 (536L (Head & Neck)): 22.5 µM
- IC50 (498NL (CNS)): 3.7 µM
- IC50 (401NL (Mammary)): < 0.41 µM
- IC50 (1657L (Pancreas)): 20 µM
- IC50 (H460 (Lung)): 6.08 µM
- IC50 (514L (Melanoma)): 10.7 µM
- IC50 (PANC1 (Pancreas)): 14.4 µM
- IC50 (526L (Lung)): 3.09 µM
- IC50 (22RV1 (Prostate)): 1.65 µM
- IC50 (T24 (Bladder)): 5.15 µM
- IC50 (1218L (Bladder)): 18.4 µM
- IC50 (HT29 (Colon)): 5.77 µM
- IC50 (OVCAR3 (Ovarian)): 26.2 µM
- IC50 (289L (Lung)): 5.04 µM
- IC50 (SF268 (CNS)): 1.52 µM
- IC50 (486L (Renal)): 20.7 µM
- IC50 (MCF7 (Mammary)): 4.37 µM
- IC50 (529L (Lung)): 2.2 µM
- IC50 (462NL (Melanoma)): 24.7 µM
- IC50 (1121L (Lung)): 0.63 µM
- IC50 (PC3M (Prostate)): 0.91 µM
- IC50 (394NL (Melanoma)): 9.99 µM
- IC50 (LNCAP (Prostate)): 0.72 µM
